Experimental data from patent US7244431B2, “Allergy vaccines and their preparation” (priority 2000, dated 2007).

Experiments:
[1] = tested on: IgE antibodies in sera from birch pollen allergic patients; assay: ELISA detection of peptide- and rBet v 1-specific IgE antibodies; assay type: binding, human
Protocol: Birch pollen allergic patients suffering from allergic rhinoconjunctivitis and/or asthma to birch pollen and related allergens were selected according to case history indicative for seasonal birch pollinosis and characterized by skin prick testing with birch pollen extract and serological CAP RAST (Pharmacia Diagnostics, Uppsala, Sweden) testing. Total IgE levels in the sera were determined by CAP RIST measurements (Pharmacia). […] Sera from 60 birch pollen allergic patients and a non-atopic individual were used for IgE competition studies. The birch pollen allergic patients group consisted of 25 males and 35 females with a mean age of 37 years (ranging from 19-60 years) (Table 2).
Subsequently, plates were incubated with 1:3 diluted sera from 60 birch pollen allergic patients and from a non-atopic individual overnight at 4° C. Bound IgE antibodies were detected with a 1:1000 diluted alkaline-phosphatase-coupled mouse monoclonal anti-human IgE antibody (Pharmingen, San Diego, Calif.).

[2] = tested on: birch pollen allergic patients; assay: Skin prick testing of allergic patients; assay type: in vivo, human; details: 100 μg/ml
Protocol: SPTs were performed on the individuals forearms as described ([…]. et al. (1997) J. Clin Invest. 99, 1673-168; Dreborg S: (1989) J. Am. Acad. DerMatol. 21, 820-821). […] In addition standardized skin prick solutions (birch pollen extract and histamine) (Allergopharma, Reinbek, Germany) were tested. Reactions were recorded 20 minutes after SPT by photography and by transferring the ballpoint pen-surrounded wheal area with a scotch tape to paper.

With “DGGSILKISNKYHTKGDHEVKAEQVKASKEC [Peptide P4, Bet v 1-derived synthetic peptide, position aa 110-139, one cysteine added]” the “IgE (OD)” value ([1]; serum of NHS, non-allergic control individual) was “— (Dashes indicate reactivities below the cut-off level (OD=0.050))”, the “IgE (OD)” value ([1]; serum of patient 1) was “— (Dashes indicate reactivities below the cut-off level (OD=0.050))” and the “IgE (OD)” value ([1]; serum of patient 2) was “— (Dashes indicate reactivities below the cut-off level (OD=0.050))”. For the same sequence, the “IgE (OD)” value ([1]; serum of patient 3) was “— (Dashes indicate reactivities below the cut-off level (OD=0.050))”, the “IgE (OD)” value ([1]; serum of patient 4) was “— (Dashes indicate reactivities below the cut-off level (OD=0.050))” and the “IgE (OD)” value ([1]; serum of patient 5) was “— (Dashes indicate reactivities below the cut-off level (OD=0.050))”. For the same sequence, the “IgE (OD)” value ([1]; serum of patient 6) was “— (Dashes indicate reactivities below the cut-off level (OD=0.050))”, the “IgE (OD)” value ([1]; serum of patient 7) was “— (Dashes indicate reactivities below the cut-off level (OD=0.050))” and the “IgE (OD)” value ([1]; serum of patient 8) was “— (Dashes indicate reactivities below the cut-off level (OD=0.050))”. The “IgE (OD)” value ([1]; serum of patient 9) was “— (Dashes indicate reactivities below the cut-off level (OD=0.050))”, the “IgE (OD)” value ([1]; serum of patient 10) was “— (Dashes indicate reactivities below the cut-off level (OD=0.050))” and the “IgE (OD)” value ([1]; serum of patient 11) was “— (Dashes indicate reactivities below the cut-off level (OD=0.050))”. For the same sequence, the “IgE (OD)” value ([1]; serum of patient 12) was “— (Dashes indicate reactivities below the cut-off level (OD=0.050))”, the “IgE (OD)” value ([1]; serum of patient 13) was “— (Dashes indicate reactivities below the cut-off level (OD=0.050))” and the “IgE (OD)” value ([1]; serum of patient 14) was “— (Dashes indicate reactivities below the cut-off level (OD=0.050))”. For the same sequence, the “IgE (OD)” value ([1]; serum of patient 15) was “— (Dashes indicate reactivities below the cut-off level (OD=0.050))”, the “IgE (OD)” value ([1]; serum of patient 16) was “— (Dashes indicate reactivities below the cut-off level (OD=0.050))” and the “IgE (OD)” value ([1]; serum of patient 17) was “— (Dashes indicate reactivities below the cut-off level (OD=0.050))”. For the same sequence, the “IgE (OD)” value ([1]; serum of patient 18) was “— (Dashes indicate reactivities below the cut-off level (OD=0.050))”, the “IgE (OD)” value ([1]; serum of patient 19) was “— (Dashes indicate reactivities below the cut-off level (OD=0.050))” and the “IgE (OD)” value ([1]; serum of patient 20) was “— (Dashes indicate reactivities below the cut-off level (OD=0.050))”. For the same sequence, the “IgE (OD)” value ([1]; serum of patient 21) was “— (Dashes indicate reactivities below the cut-off level (OD=0.050))”, the “IgE (OD)” value ([1]; serum of patient 22) was “— (Dashes indicate reactivities below the cut-off level (OD=0.050))” and the “IgE (OD)” value ([1]; serum of patient 23) was “— (Dashes indicate reactivities below the cut-off level (OD=0.050))”. For the same sequence, the “IgE (OD)” value ([1]; serum of patient 24) was “— (Dashes indicate reactivities below the cut-off level (OD=0.050))”, the “IgE (OD)” value ([1]; serum of patient 25) was “— (Dashes indicate reactivities below the cut-off level (OD=0.050))” and the “IgE (OD)” value ([1]; serum of patient 26) was “— (Dashes indicate reactivities below the cut-off level (OD=0.050))”. For the same sequence, the “IgE (OD)” value ([1]; serum of patient 27) was “— (Dashes indicate reactivities below the cut-off level (OD=0.050))”, the “IgE (OD)” value ([1]; serum of patient 28) was “— (Dashes indicate reactivities below the cut-off level (OD=0.050))” and the “IgE (OD)” value ([1]; serum of patient 29) was “— (Dashes indicate reactivities below the cut-off level (OD=0.050))”. The “IgE (OD)” value ([1]; serum of patient 30) was “— (Dashes indicate reactivities below the cut-off level (OD=0.050))”, the “IgE (OD)” value ([1]; serum of patient 31) was “— (Dashes indicate reactivities below the cut-off level (OD=0.050))” and the “IgE (OD)” value ([1]; serum of patient 32) was “— (Dashes indicate reactivities below the cut-off level (OD=0.050))”. The “IgE (OD)” value ([1]; serum of patient 33) was “— (Dashes indicate reactivities below the cut-off level (OD=0.050))”, the “IgE (OD)” value ([1]; serum of patient 34) was “— (Dashes indicate reactivities below the cut-off level (OD=0.050))” and the “IgE (OD)” value ([1]; serum of patient 35) was “— (Dashes indicate reactivities below the cut-off level (OD=0.050))”. For the same sequence, the “IgE (OD)” value ([1]; serum of patient 36) was “— (Dashes indicate reactivities below the cut-off level (OD=0.050))”, the “IgE (OD)” value ([1]; serum of patient 37) was “— (Dashes indicate reactivities below the cut-off level (OD=0.050))” and the “IgE (OD)” value ([1]; serum of patient 38) was “— (Dashes indicate reactivities below the cut-off level (OD=0.050))”. The “IgE (OD)” value ([1]; serum of patient 39) was “— (Dashes indicate reactivities below the cut-off level (OD=0.050))”, the “IgE (OD)” value ([1]; serum of patient 40) was “— (Dashes indicate reactivities below the cut-off level (OD=0.050))” and the “IgE (OD)” value ([1]; serum of patient 41) was “— (Dashes indicate reactivities below the cut-off level (OD=0.050))”. For the same sequence, the “IgE (OD)” value ([1]; serum of patient 42) was “— (Dashes indicate reactivities below the cut-off level (OD=0.050))”, the “IgE (OD)” value ([1]; serum of patient 43) was “— (Dashes indicate reactivities below the cut-off level (OD=0.050))” and the “IgE (OD)” value ([1]; serum of patient 44) was “— (Dashes indicate reactivities below the cut-off level (OD=0.050))”. The “IgE (OD)” value ([1]; serum of patient 45) was “— (Dashes indicate reactivities below the cut-off level (OD=0.050))”, the “IgE (OD)” value ([1]; serum of patient 46) was “— (Dashes indicate reactivities below the cut-off level (OD=0.050))” and the “IgE (OD)” value ([1]; serum of patient 47) was “— (Dashes indicate reactivities below the cut-off level (OD=0.050))”. For the same sequence, the “IgE (OD)” value ([1]; serum of patient 48) was “— (Dashes indicate reactivities below the cut-off level (OD=0.050))”, the “IgE (OD)” value ([1]; serum of patient 49) was “— (Dashes indicate reactivities below the cut-off level (OD=0.050))” and the “IgE (OD)” value ([1]; serum of patient 50) was “— (Dashes indicate reactivities below the cut-off level (OD=0.050))”. The “IgE (OD)” value ([1]; serum of patient 51) was “— (Dashes indicate reactivities below the cut-off level (OD=0.050))”, the “IgE (OD)” value ([1]; serum of patient 52) was “— (Dashes indicate reactivities below the cut-off level (OD=0.050))” and the “IgE (OD)” value ([1]; serum of patient 53) was “— (Dashes indicate reactivities below the cut-off level (OD=0.050))”. For the same sequence, the “IgE (OD)” value ([1]; serum of patient 54) was “— (Dashes indicate reactivities below the cut-off level (OD=0.050))”, the “IgE (OD)” value ([1]; serum of patient 55) was “— (Dashes indicate reactivities below the cut-off level (OD=0.050))” and the “IgE (OD)” value ([1]; serum of patient 56) was “— (Dashes indicate reactivities below the cut-off level (OD=0.050))”. The “IgE (OD)” value ([1]; serum of patient 57) was “— (Dashes indicate reactivities below the cut-off level (OD=0.050))”, the “IgE (OD)” value ([1]; serum of patient 58) was “— (Dashes indicate reactivities below the cut-off level (OD=0.050))” and the “IgE (OD)” value ([1]; serum of patient 59) was “— (Dashes indicate reactivities below the cut-off level (OD=0.050))”. The “IgE (OD)” value ([1]; serum of patient 60) was “— (Dashes indicate reactivities below the cut-off level (OD=0.050))”, the mean wheal diameter ([2]; individual 1) was 0 mm and the mean wheal diameter ([2]; individual 2) was 0 mm. The mean wheal diameter ([2]; individual 3) was 0 mm, the mean wheal diameter ([2]; individual 4) was 0 mm and the mean wheal diameter ([2]; individual 5) was 0 mm. It also gave a mean wheal diameter ([2]; individual 6 (allergic, without birch pollen allergy)) of 0 mm.
